Values after ≈ are worked out from the molar mass of the structure shown.
Legend:
[1] = test system: clinical XDR strains of M. tuberculosis; assay: microbe, parasite or virus in culture; format: cell-based; conditions: Mycobacterium tuberculosis
[2] = test system: P. berghei ANKA sporozoites; assay: Causal prophylactic P. berghei sporozoite mouse model; format: in vivo
Protocol: EXAMPLE. CEM-101 activity as prophylactic. Mice inoculated IV with 0.1 ml, 100,000 P. berghei ANKA sporozoites from mosquitoes. Drug administered Day −1, 0 and 1, Once daily for 3 days.

[3] = Systemic toxicity in mice with SC or PO dosing; format: in vivo; conditions: SC or PO dosing as high as 160 mg/kg/d×3 days
Protocol: For blood stage infections, the minimum curative SC dose was 40 mg/kg/d×3 days, while 80 mg/kg/d×3 was the minimum active dose for PO route. In the P. berghei causal mouse model, CEM-101 was curative at 40 mg/kg/d×3 days with SC or PO dosing.

`CC[C@H]1OC(=O)[C@@](C)(F)C(=O)[C@H](C)[C@@H](O[C@@H]2O[C@H](C)C[C@H](N(C)C)[C@H]2O)[C@](C)(OC)C[C@@H](C)C(=O)[C@H](C)[C@H]2N(CCCCn3cc(-c4cccc(N)c4)nn3)C(=O)O[C@]12C` [CEM-101, solithromycin] showed an MIC ([1]; 168 h, strain OB005, 1 week) of 3.12 µg/mL (≈ 3.7 µM), an MIC ([1]; 168 h, strain OB031, 1 week) of 0.049 µg/mL (≈ 0.058 µM) and an MIC ([1]; 168 h, strain OB076a, 1 week) of 0.049 µg/mL (≈ 0.058 µM). For the same compound, the MIC ([1]; 168 h, strain OB076b, 1 week) was 0.049 µg/mL (≈ 0.058 µM), the MIC ([1]; 168 h, strain OB082, 1 week) was 0.049 µg/mL (≈ 0.058 µM) and the MIC ([1]; 336 h, strain OB005, 2 weeks) was 12.5 µg/mL (≈ 14.8 µM). It also gave an MIC ([1]; 336 h, strain OB019, 2 weeks) of 1.56 µg/mL (≈ 1.85 µM), an MIC ([1]; 336 h, strain OB031, 2 weeks) of 0.78 to 1.56 µg/mL (≈ 0.923 to 1.85 µM) and an MIC ([1]; 336 h, strain OB062, 2 weeks) of 0.39 to 0.78 µg/mL (≈ 0.462 to 0.923 µM). The MIC ([1]; 336 h, strain OB076a, 2 weeks) was 0.098 µg/mL (≈ 0.116 µM), the MIC ([1]; 336 h, strain OB076b, 2 weeks) was 0.049 µg/mL (≈ 0.058 µM) and the MIC ([1]; 336 h, strain OB081, 2 weeks) was 12.5 µg/mL (≈ 14.8 µM). For the same compound, the MIC ([1]; 336 h, strain OB082, 2 weeks) was 0.098 µg/mL (≈ 0.116 µM), the MIC ([1]; strain OB031, after a week (as the cell number increased)) was 0.78 to 1.56 µg/mL (≈ 0.923 to 1.85 µM) and the MIC ([1]; strain OB031, initially) was 0.049 µg/mL (≈ 0.058 µM). The “mice remaining parasite free” value ([2]; 20 mg/kg/d×3 days) was 3/5, the “outcome in the P. berghei causal mouse model” value ([2]; 40 mg/kg/d×3 days with SC or PO dosing) was “curative” and the prophylactic activity ([2]; causal mouse malaria models, PO dosing at 40 mg/kg/d×3 days) was 100%. For the same compound, the “blood stage infection after prophylactic dosing” value ([2]; mice dosed as low as 40 mg/kg/d×3 days) was “no blood stage infection was detected”, the Activity ([2]; mice, PO, dose 80, once daily Day -1, 0 and 1, (3 mice)) was “Complete curative” and the Activity ([2]; mice, PO, dose 120, once daily Day -1, 0 and 1, (3 mice)) was “Complete curative”. For the same compound, the Activity ([2]; mice, PO, dose 160, once daily Day -1, 0 and 1) was “Complete curative”, the Activity ([2]; mice, SC, dose 40, once daily Day -1, 0 and 1) was “Complete curative” and the Activity ([2]; mice, SC, dose 80, once daily Day -1, 0 and 1) was “Complete curative”. The Activity ([2]; mice, SC, dose 120, once daily Day -1, 0 and 1) was “Complete curative”, the Activity ([2]; mice, SC, dose 160, once daily Day -1, 0 and 1) was “Complete curative” and the minimum active dose ([2]; mice, causal prophylactic model) was 20 mg/kg/d×3 days. For the same compound, the systemic toxicity [3] was “No systemic toxicity”.

From US9480679B2, “Methods for treating malaria, tuberculosis and MAC diseases” (priority 2009, dated 2016)
